Measured values reported in ChEMBL document CHEMBL3856191, “Structural modifications at the 6-position of thieno[2,3-d]pyrimidines and their effects on potency at FLT3 for treatment of acute myeloid leukemia” (Eur J Med Chem, 2016).

Tests used:
[1] = target: cAMP-dependent protein kinase catalytic subunit alpha (Homo sapiens) (UniProt P17612); assay: Inhibition of human recombinant PRKACA expressed in Escherichia coli assessed as remaining activity at 10 uM preincubated for 15 mins followed by PKA substrate peptide addition measured after 30 mins in presence of [gamma-32P]ATP by […] assay
[2] = Volume of distribution at steady state in Sprague-Dawley rat at 5 mg/kg, iv up to 24 hrs by LC/MS/MS analysis; assay type: ADME, organism-based; details: in vivo, read-out: Vdss
[3] = Cmax in Sprague-Dawley rat at 30 mg/kg, po by LC/MS/MS analysis; assay type: ADME, organism-based; design: dose 30 mg/kg, route oral; details: in vivo
[4] = target: Proto-oncogene tyrosine-protein kinase receptor Ret (Homo sapiens) (UniProt P07949); assay: Inhibition of recombinant human RET expressed in insect Sf21 cells assessed as remaining activity at 10 uM preincubated for 15 mins followed by poly(Glu:Tyr) substrate addition for 30 mins in presence of [gamma-32P]ATP by […] assay
[5] = target: Dual specificity mitogen-activated protein kinase kinase 1 (Homo sapiens) (UniProt Q02750); assay: Inhibition of recombinant human MEK1 expressed in Escherichia coli assessed as remaining activity at 10 uM preincubated for 15 mins followed by myelin basic protein substrate addition for 30 mins in presence of [gamma-32P]ATP by […] assay
[6] = Elimination half life in Sprague-Dawley rat at 30 mg/kg, po by LC/MS/MS analysis; assay type: ADME, organism-based; details: in vivo, read-out: beta t1/2 (converted)
[7] = tested on: Tyrosine-protein kinase ABL1 (Homo sapiens), P00519 [T315I]; assay: Inhibition of human ABL T315I mutant assessed as remaining activity at 10 uM preincubated for 15 mins followed by poly(Glu:Tyr) substrate addition for 30 mins in presence of [gamma-32P]ATP by […] assay
[8] = target: Mitogen-activated protein kinase 9 (Homo sapiens) (UniProt P45984); assay: Inhibition of recombinant human JNK2alpha2 expressed in insect Sf21 cells assessed as remaining activity at 10 uM preincubated for 15 mins followed by ATF2 substrate addition for 30 mins in presence of [gamma-32P]ATP by […] assay
[9] = target: Tyrosine-protein kinase Lyn (Homo sapiens) (UniProt P07948); assay: Inhibition of LYN (unknown origin) assessed as remaining activity at 10 uM in presence of [gamma-32P]ATP by […] assay
[10] = target: Tyrosine-protein kinase receptor UFO (Homo sapiens) (UniProt P30530); assay: Inhibition of recombinant human AXL expressed in insect Sf21 cells assessed as remaining activity at 10 uM preincubated for 15 mins followed by poly(Glu:Tyr) substrate addition for 30 mins in presence of [gamma-32P]ATP by […] assay
[11] = target: Tyrosine-protein kinase BTK (Homo sapiens) (UniProt Q06187); assay: Inhibition of recombinant human BTK expressed in insect Sf21 cells assessed as remaining activity at 10 uM preincubated for 15 mins followed by poly(Glu:Tyr) substrate addition for 30 mins in presence of [gamma-32P]ATP by […] assay
[12] = target: Inhibitor of nuclear factor kappa-B kinase subunit beta (Homo sapiens) (UniProt O14920); assay: Inhibition of recombinant human IKK-beta expressed in insect Sf21 cells assessed as remaining activity at 10 uM preincubated for 15 mins followed by IKKtide substrate addition for 30 mins in presence of [gamma-32P]ATP by […] assay
[13] = target: Dual specificity mitogen-activated protein kinase kinase 7 (Homo sapiens) (UniProt O14733); assay: Inhibition of human MKK7beta assessed as remaining activity at 10 uM in presence of [gamma-32P]ATP by […] assay
[14] = target: Tyrosine-protein kinase Fes/Fps (Homo sapiens) (UniProt P07332); assay: Inhibition of recombinant human FES expressed in insect Sf21 cells assessed as remaining activity at 10 uM preincubated for 15 mins followed by poly(Glu:Tyr) substrate addition for 30 mins in presence of [gamma-32P]ATP by […] assay
[15] = target: Ribosomal protein S6 kinase alpha-5 (Homo sapiens) (UniProt O75582); assay: Inhibition of recombinant human MSK1 expressed in insect Sf21 cells assessed as remaining activity at 10 uM preincubated for 15 mins followed by Crosstide KK substrate addition for 30 mins in presence of [gamma-32P]ATP by […] assay
[16] = target: Tyrosine-protein kinase ZAP-70 (Homo sapiens) (UniProt P43403); assay: Inhibition of recombinant human ZAP-70 expressed in insect Sf21 cells assessed as remaining activity at 10 uM preincubated for 15 mins followed by poly(Glu:Tyr) substrate addition for 30 mins in presence of [gamma-32P]ATP by […] assay
[17] = target: Rho-associated protein kinase 2 (Homo sapiens) (UniProt O75116); assay: Inhibition of human recombinant ROCK-2 expressed in sf21 cells assessed as remaining activity at 10 uM preincubated for 15 mins followed by Long S6 kinase substrate addition measured after 30 mins in presence of [gamma-32P]ATP by […] assay
[18] = target: Mitogen-activated protein kinase 13 (Homo sapiens) (UniProt O15264); assay: Inhibition of human SAPK4 assessed as remaining activity at 10 uM in presence of [gamma-32P]ATP by […] assay
[19] = target: Platelet-derived growth factor receptor alpha (Homo sapiens) (UniProt P16234); assay: Inhibition of recombinant human PDGFR-alpha expressed in insect Sf21 cells assessed as remaining activity at 10 uM preincubated for 15 mins followed by poly(Glu:Tyr) substrate addition for 30 mins in presence of [gamma-32P]ATP by […] assay
[20] = Elimination half life in Sprague-Dawley rat at 5 mg/kg, iv by LC/MS/MS analysis; assay type: ADME, organism-based; details: in vivo, read-out: beta t1/2 (converted)
cells [21] = details: Homo sapiens, HL-60, 48 h
Description: Growth inhibition of human HL60 cells expressing wild type FLT-3 after 48 hrs by XTT assay

Angiopoietin-1 receptor = Angiopoietin-1 receptor (Homo sapiens, UniProt Q02763); assay: Inhibition of human TIE2 preincubated for 15 mins followed by substrate addition measured after 30 mins in presence of [gamma-32P]ATP by […] assay
[22] = target: Mitogen-activated protein kinase 8 (Homo sapiens) (UniProt P45983); assay: Inhibition of recombinant human JNK1alpha1 expressed in insect Sf21 cells assessed as remaining activity at 10 uM preincubated for 15 mins followed by ATF2 substrate addition for 30 mins in presence of [gamma-32P]ATP by […] assay
cells [23] = details: Homo sapiens, MV4-11, 48 h
Description: Growth inhibition of human MV4-11 cells expressing FLT3-ITD after 48 hrs by XTT assay

[24] = target: Tyrosine-protein kinase JAK2 (Homo sapiens) (UniProt O60674); assay: Inhibition of recombinant human JAK2 expressed in insect cells assessed as remaining activity at 10 uM preincubated for 15 mins followed by poly(Glu:Tyr) substrate addition for 30 mins in presence of [gamma-32P]ATP by […] assay

Chain of Inhibitor of nuclear factor kappa-B kinase subunit beta (Homo sapiens) (O14920 whole entry): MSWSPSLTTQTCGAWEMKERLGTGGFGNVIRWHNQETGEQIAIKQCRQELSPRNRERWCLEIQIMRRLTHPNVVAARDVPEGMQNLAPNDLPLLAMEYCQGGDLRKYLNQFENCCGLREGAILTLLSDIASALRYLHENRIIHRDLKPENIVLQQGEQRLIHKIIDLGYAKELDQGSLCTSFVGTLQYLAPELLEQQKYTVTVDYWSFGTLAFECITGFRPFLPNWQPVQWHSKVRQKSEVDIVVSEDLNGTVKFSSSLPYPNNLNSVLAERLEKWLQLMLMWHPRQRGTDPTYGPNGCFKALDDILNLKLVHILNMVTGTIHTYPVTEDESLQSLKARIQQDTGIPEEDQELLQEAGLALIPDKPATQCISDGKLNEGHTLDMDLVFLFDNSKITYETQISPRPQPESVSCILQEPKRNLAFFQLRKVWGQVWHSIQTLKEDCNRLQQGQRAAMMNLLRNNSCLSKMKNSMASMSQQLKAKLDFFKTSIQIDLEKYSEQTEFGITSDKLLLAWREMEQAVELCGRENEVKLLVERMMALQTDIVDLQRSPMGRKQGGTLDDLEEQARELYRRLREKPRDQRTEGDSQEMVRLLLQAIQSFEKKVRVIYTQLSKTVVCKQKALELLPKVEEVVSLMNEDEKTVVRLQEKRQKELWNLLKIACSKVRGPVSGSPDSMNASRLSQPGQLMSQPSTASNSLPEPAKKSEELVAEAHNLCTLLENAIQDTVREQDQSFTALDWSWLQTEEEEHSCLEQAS
Chain of Dual specificity mitogen-activated protein kinase kinase 1 (Homo sapiens) (Q02750 whole entry): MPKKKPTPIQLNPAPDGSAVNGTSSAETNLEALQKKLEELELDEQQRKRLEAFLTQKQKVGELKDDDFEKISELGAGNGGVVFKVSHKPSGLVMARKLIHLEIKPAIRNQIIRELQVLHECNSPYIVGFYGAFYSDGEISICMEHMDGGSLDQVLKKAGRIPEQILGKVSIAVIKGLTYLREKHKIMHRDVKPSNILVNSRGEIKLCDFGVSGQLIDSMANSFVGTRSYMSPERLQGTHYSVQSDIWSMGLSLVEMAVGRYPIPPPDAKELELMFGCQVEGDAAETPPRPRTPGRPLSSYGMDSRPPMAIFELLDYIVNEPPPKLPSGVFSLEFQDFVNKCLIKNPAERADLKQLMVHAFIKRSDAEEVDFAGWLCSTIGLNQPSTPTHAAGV
Chain of Dual specificity mitogen-activated protein kinase kinase 7 (Homo sapiens) (O14733 whole entry): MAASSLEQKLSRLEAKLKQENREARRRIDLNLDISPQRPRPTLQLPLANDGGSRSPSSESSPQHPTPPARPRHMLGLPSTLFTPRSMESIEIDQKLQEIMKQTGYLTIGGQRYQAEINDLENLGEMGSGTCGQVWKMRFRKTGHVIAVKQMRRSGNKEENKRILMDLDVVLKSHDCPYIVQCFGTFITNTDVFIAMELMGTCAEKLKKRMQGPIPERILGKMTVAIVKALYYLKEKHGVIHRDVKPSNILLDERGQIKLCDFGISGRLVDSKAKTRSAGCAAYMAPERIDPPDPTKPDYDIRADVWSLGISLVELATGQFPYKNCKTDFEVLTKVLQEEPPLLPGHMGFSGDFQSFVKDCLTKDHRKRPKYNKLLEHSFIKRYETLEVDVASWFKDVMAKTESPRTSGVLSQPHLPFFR
Chain of Platelet-derived growth factor receptor alpha (Homo sapiens) (P16234 whole entry): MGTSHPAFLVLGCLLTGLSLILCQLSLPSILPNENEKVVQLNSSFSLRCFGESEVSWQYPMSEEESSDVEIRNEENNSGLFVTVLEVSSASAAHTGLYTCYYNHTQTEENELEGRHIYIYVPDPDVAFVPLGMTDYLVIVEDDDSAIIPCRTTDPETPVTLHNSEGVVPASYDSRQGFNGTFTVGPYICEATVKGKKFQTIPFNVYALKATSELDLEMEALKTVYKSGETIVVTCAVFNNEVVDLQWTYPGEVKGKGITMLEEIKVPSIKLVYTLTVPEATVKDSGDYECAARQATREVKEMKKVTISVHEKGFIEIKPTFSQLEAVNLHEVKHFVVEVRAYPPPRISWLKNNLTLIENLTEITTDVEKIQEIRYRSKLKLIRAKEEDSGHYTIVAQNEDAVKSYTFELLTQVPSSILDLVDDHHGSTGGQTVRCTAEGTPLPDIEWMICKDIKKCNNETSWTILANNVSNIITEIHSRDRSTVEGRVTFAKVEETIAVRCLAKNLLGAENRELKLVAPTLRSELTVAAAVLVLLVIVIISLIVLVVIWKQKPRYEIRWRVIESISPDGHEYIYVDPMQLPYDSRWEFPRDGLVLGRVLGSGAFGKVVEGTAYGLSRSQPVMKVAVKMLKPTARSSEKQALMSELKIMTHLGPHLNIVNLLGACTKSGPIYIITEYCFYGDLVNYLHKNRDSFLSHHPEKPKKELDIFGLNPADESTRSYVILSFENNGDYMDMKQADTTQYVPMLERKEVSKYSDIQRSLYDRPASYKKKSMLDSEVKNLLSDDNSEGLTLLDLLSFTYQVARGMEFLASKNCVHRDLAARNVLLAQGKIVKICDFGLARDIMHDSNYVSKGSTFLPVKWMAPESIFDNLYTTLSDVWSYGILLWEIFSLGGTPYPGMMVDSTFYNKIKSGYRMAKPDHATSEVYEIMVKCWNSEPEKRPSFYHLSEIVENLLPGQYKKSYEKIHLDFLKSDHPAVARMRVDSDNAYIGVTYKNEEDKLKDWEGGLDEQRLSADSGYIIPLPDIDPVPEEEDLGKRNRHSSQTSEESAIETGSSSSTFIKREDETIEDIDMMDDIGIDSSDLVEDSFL
Chain of Proto-oncogene tyrosine-protein kinase receptor Ret (Homo sapiens) (P07949 whole entry): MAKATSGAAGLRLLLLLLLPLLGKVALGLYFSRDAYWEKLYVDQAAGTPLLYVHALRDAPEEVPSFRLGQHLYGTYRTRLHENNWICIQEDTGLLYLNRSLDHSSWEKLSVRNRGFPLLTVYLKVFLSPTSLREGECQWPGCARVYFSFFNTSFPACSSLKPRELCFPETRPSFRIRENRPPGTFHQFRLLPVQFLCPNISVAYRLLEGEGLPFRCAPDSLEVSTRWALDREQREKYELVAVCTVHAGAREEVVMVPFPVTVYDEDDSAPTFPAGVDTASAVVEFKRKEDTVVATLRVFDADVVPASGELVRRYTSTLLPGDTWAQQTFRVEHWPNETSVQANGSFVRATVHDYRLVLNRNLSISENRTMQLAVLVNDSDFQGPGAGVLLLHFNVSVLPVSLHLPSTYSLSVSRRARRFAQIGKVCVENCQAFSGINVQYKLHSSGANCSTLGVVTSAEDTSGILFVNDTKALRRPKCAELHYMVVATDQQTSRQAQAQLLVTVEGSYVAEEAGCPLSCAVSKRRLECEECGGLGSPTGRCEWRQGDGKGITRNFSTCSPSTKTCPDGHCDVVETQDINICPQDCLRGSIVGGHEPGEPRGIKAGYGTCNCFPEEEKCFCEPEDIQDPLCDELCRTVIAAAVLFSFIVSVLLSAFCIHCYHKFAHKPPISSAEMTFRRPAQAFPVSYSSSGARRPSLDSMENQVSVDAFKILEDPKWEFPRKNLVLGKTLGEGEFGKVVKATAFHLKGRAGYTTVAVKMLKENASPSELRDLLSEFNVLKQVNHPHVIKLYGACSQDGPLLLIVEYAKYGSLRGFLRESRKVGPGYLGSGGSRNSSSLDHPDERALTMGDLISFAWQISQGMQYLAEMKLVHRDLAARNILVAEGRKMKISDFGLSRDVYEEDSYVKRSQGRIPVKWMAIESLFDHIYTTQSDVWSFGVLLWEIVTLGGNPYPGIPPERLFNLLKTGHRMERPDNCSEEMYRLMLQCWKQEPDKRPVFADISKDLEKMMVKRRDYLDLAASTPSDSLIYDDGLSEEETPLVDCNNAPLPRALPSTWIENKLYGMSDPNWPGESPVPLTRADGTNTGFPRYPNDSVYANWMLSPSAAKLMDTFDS
Chain of Mitogen-activated protein kinase 9 (Homo sapiens) (P45984 whole entry, looked up): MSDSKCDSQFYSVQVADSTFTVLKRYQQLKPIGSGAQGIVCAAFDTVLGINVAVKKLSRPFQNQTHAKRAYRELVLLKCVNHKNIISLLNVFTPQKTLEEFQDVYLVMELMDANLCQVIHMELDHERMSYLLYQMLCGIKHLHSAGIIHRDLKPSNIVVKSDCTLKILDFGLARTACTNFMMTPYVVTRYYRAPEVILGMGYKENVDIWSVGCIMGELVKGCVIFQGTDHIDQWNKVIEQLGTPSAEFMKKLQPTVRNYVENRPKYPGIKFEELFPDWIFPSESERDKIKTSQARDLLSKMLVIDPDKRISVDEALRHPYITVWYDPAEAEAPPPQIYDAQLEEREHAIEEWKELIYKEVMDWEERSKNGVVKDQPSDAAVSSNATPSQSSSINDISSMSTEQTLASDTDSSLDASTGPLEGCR
Chain of Tyrosine-protein kinase ZAP-70 (Homo sapiens) (P43403 whole entry): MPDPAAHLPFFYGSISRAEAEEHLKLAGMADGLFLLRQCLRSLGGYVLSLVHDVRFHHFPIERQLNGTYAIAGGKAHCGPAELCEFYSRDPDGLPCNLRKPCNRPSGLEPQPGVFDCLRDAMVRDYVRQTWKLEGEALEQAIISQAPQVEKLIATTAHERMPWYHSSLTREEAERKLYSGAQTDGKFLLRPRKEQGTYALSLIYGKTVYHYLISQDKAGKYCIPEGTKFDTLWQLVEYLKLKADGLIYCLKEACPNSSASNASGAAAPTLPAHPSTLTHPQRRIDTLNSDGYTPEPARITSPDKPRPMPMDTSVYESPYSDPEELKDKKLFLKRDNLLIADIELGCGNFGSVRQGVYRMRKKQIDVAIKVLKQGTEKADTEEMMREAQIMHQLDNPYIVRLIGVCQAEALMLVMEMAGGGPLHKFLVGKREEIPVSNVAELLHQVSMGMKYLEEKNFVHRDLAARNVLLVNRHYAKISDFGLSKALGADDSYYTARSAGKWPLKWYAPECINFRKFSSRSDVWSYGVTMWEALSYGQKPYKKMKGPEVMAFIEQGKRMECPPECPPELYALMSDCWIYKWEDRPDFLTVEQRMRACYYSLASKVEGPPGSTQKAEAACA

`CNCCOc1ccc(-c2sc3nc(-c4cccs4)nc(NN4C(=O)C=C(C)C4=O)c3c2C)cc1.Cl` gave an Activity [1] of 112%, a Vd [2] of 8.22 L/kg and a Cmax [3] of 420 ng/mL. It also gave an Activity [4] of 42%, an Activity [5] of 103% and a half-life [6] of 15.2 h. For the same molecule, the Activity [7] was 44%, the Activity [8] was 113% and the Activity [9] was 58%. The Activity [10] was 44%, the Activity [11] was 83% and the Activity [12] was 63%. The Activity [13] was 111%, the Activity [14] was 78% and the Activity [15] was 110%. The Activity [16] was 101%, the Activity [17] was 93% and the Activity [18] was 93%. For the same molecule, the Activity [19] was 115%, the half-life [20] was 7.61 h and the GI50 (cells [21]) was 250 nM. The IC50 (Angiopoietin-1 receptor) was 9750 nM, the Activity [22] was 96% and the GI50 (cells [23]) was 540 nM. The Activity [24] was 99%.
